For orientation: pIC50 means the negative decadic logarithm of the IC50, by convention in mol/L. Higher therefore signals a low IC50.

Data set [1] deals with B16F10-OVA melanoma tumours. Description: B16F10-OVA tumour growth and infiltration model. It is filed as in vivo, C57BL/6J mice. Here is the method:
Seven to 10-week-old male C57BL/6J mice were inoculated subcutaneously with 1.0 × 10^6 B16F10-OVA. Animals were assigned randomly to each experimental group. Four days after inoculation, mice were treated with a peritoneal injection of 0.2 mg DEG (approximately 10 mg kg^−1). Treatment was repeated every 2–3 days until day 28. Tumour volume was measured every 2–3 days with electronic callipers until day 30. Peripheral blood was collected from the tail vein at day 7 and 14 days after tumour inoculation and analysed using flow cytometry. On day 14, tumours were dissected and dissociated using the Tumor Dissociation Kit (catalogue no. 130-095-929, Miltenyi Biotec), according to the manufacturer’s instructions. Spleen and the tumour-draining lymph node were mashed in cell strainers. The tumour, spleen and draining lymph node single-cell suspensions were stained with fluorochrome-labelled antibodies and analysed using flow cytometry. The tumour experiments using C57BL/6J mice were carried out in accordance with the ethical regulations of the UK Home Office and the maximal tumour burden of […] was not exceeded (mice were euthanized when tumour volume exceeded […]).

The next data set concerns murine CD8^+ T cells. Description: Cell growth and viability of murine CD8^+ T cells. It is filed as cell-based. The settings on record: 7 days. As for the experimental part: After 7 days of culture, we assessed the abundance of CD62L^hiCD44^hi (TCM-like) T cells by flow cytometry (Fig. 1a). We additionally determined the effect of each compound on cell growth and viability (Fig. 1b and Extended Data Fig. 1a).
B16F10 cells were originally purchased from ATCC (catalogue no. CRL-6475) and genetically modified to express OVA, enhanced green fluorescent protein (GFP) and neomycin phosphotransferase. The resulting OVA expression B16F10-OVA cells were cultured in DMEM (catalogue no. 11995065, Thermo Fisher Scientific) containing 0.75 mg ml^−1 G418 sulphate (catalogue no. 10131027, Thermo Fisher Scientific). HEK 293T cells were purchased from Takara Bio (catalogue no. 632180) and cultured in DMEM. SKOV3 was purchased from ATCC (catalogue no. HTB-77) and cultured in McCoy’s 5A (Modified) Medium (catalogue no. 16600082, Thermo Fisher Scientific). Raji-GFP-Luc cells were purchased from Biocytogen (catalogue no. B-HCL-010) and cultured in Roswell Park Memorial Institute (RPMI) 1640 (catalogue no. 21875, Thermo Fisher Scientific). Jurkat cells were purchased from ATCC (catalogue no. TIB-152) and cultured in RPMI 1640. RAW 264.7 cells were purchased from ATCC (catalogue no. TIB-71) and cultured in RPMI 1640. HeLa cells were a gift from P. Lehner (University of Cambridge) and were authenticated using short tandem repeat profiling (Eurofins Genomics). HeLa cells were cultured in DMEM. MEFs were isolated from macerated embryonic day (E) 12.5–13.5 embryos. A whole litter of embryos without sex selection were used. Stable transfection with SV40 large T antigen passage 3 was used for immortalization. Cells were subcultured over 17 more passages and maintained in DMEM[63]. All media was supplemented with 10% FCS (catalogue no. 10270106, Gibco), 100 U ml^−1 penicillin and 100 µg ml^−1 streptomycin (catalogue no. P4333, Sigma-Aldrich). […] Cell number and viability was determined using the ADAM-MC Automated Cell Counter (NanoEntek), CellDrop Automated Cell Counter (DeNovix) or TC20 Automated Cell Counter (Bio-Rad Laboratories). […]

The target in another data set is T1, human full-length KDM6A (Homo sapiens, UniProt O15550).
T1 construct: The human full-length HIF-P4H-1 and KDM6A enzymes were recombinantly produced using Sf21 insect cells; made in house; host or cells: Sf21 insect cells (baculovirus, pVL1393)
Nature of the data set: Cell-free KDM6A activity assay (^14CO2 release). It is filed as biochemical. From the text: The human full-length HIF-P4H-1 and KDM6A enzymes were recombinantly produced using Sf21 insect cells and the enzymes were purified with anti-FLAG M2 affinity gel as described previously[68],[69]. Briefly, the C terminus FLAG-tagged human HIF-P4H1-2 and KDM6A were generated using PCR and subcloned into pAcG3X and pVL1393 baculovirus expression vectors, respectively. The recombinant baculoviruses were generated by transducing the bacmid DNA into Spodoptera frugiperda Sf9 cells using BaculoGold DNA (HIF-P4H1-2, BD Biosciences) and BacMagic-3 DNA kit (for KDM6A, Novagen). Recombinant proteins were produced by infecting Sf21 insect cells with the corresponding amplified baculoviruses for 72 h at 27 °C. Cells were homogenized in a buffer containing 10 mM Tris, 150 mM NaCl, 100 mM glycine, 0.1% (v/v) Triton X-100, pH 7.8, and a protease inhibitor cocktail tablet without EDTA. The cell lysates were centrifuged at 21,000g for 30 min; the soluble fractions containing the FLAG-tagged proteins were affinity-purified using the anti-FLAG M2 affinity gel (Sigma-Aldrich). […] Protein concentration was measured with NanoDrop and proteins were analysed by SDS–PAGE followed by Coomassie brilliant blue staining. […] The IC50 value of the glutarate analogue was calculated from the inhibition saturation curves.

[2] abbreviates: 14 days after tumour inoculation, relative to controls.

Each structure is given as a SMILES string. pIC50: −log10 of the molar value.

T1 sequence (O15550 whole entry): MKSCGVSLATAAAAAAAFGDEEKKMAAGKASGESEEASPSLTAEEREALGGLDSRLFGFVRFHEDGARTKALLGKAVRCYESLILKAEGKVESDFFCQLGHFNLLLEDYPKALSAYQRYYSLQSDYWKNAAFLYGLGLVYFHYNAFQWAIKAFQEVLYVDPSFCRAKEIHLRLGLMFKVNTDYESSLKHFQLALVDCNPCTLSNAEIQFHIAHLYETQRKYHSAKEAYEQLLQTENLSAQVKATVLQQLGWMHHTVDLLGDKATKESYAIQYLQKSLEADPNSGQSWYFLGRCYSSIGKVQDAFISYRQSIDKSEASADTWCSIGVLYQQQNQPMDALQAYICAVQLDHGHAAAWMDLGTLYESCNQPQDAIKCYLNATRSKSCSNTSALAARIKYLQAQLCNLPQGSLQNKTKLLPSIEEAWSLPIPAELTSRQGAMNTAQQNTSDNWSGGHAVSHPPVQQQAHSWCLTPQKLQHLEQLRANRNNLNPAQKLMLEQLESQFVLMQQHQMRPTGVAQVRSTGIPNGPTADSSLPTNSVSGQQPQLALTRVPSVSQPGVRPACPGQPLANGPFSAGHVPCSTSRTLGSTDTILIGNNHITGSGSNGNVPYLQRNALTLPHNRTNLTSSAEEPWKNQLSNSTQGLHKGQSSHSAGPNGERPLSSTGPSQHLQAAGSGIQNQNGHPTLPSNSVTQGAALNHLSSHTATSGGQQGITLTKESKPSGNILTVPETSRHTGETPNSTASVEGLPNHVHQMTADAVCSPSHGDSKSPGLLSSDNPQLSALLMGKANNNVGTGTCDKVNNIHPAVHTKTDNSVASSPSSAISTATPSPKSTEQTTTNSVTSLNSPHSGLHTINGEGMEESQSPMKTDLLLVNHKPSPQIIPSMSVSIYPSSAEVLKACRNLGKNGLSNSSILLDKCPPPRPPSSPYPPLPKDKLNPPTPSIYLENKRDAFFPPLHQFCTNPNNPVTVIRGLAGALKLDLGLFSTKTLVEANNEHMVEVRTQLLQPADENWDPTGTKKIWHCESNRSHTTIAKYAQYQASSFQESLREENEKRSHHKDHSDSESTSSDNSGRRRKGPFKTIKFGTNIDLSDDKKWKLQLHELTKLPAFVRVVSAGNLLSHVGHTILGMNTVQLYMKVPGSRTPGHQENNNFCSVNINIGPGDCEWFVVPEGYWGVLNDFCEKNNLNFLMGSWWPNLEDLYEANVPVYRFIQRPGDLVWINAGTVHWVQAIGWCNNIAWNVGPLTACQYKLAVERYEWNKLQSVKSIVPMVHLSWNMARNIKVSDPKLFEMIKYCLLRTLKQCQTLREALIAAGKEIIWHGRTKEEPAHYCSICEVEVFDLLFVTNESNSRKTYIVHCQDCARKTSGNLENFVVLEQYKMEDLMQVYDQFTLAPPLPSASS

As to `CCOC(=O)CCCC(=O)OCC` [DEG, Diethyl glutarate], in data set [1] (10 mg kg^−1 DEG intraperitoneally every 48–72 h, 1,000 mm^3 tumour volume as threshold), the survival entry was “significantly increased survival”. Further, the tumour growth result in data set [1] (10 mg kg^−1 DEG intraperitoneally every 48–72 h from day 4) is “significantly slowed tumour growth”. In data set [1] (setting [2]), the “peripheral blood CD8^+ T cells” value is reported as “significant increase” and the “tumour-infiltrating CD8^+ T cells” value is “significant increase”. Besides, in data set [1] (blood, tumour, spleen, tumour-draining lymph node, day 14), the other immune populations result is recorded as “No changes”. Moreover, in data set [1] (day 14), the “circulating B cells” value is listed as “slight decrease”; the “exhaustion-associated markers (TIM3, PD1, LAG3, TOX) in tumour-infiltrating CD4^+ or CD8^+ cells” value is reported as “no changes”; the “memory-associated markers (CD62L and CD44) in tumour-infiltrating CD4^+ or CD8^+ cells” value is given as “no changes”. Further, in the data set on murine CD8^+ T cells (400 µM), the “cell viability or proliferation” value is “no negative effects”. In addition, the cell growth entry in the data set with murine CD8^+ T cells (even at 1-mM concentrations) was “did not display any negative effects”.
The compound `O=C(O)CCCC(=O)O` [glutarate, glutaric acid] had a pIC50 on human full-length KDM6A of 3.22.
